*1 amine or outer side, *2 acyl side, *3 side chain or, on linkers, in order; H or OH if unused. Where a SMILES comes first, the peptide text is derived from it. The star is where a group is joined. C22 diacid = O=C(O)CCCCCCCCCCCCCCCCCCCCC(=O)*; C20 diacid = O=C(O)CCCCCCCCCCCCCCCCCCC(=O)*; C18 diacid = O=C(O)CCCCCCCCCCCCCCCCC(=O)*; C16 diacid = O=C(O)CCCCCCCCCCCCCCC(=O)*; γGlu = O=C(O)[C@H](CCC(=O)[*:2])N[*:1]; Trx = NC[C@H]1CC[C@H](C(=O)O)CC1; Inp = O=C(O)C1CCNCC1
Experiment: Heat accelerated stability assay under a neutral condition
Type: physicochemical
Settings: pH about 7.4, 40°C; for Changes in characteristics or properties, 0d / Changes in characteristics or properties, 7d: 1 mg/mL, phosphate; for Concentration change (7d-0d)/%: Day 7 vs Day 0, reversed phase chromatography; for Purity Change% (7d-0d) / Purity Change% (26d-0d): purity from reversed phase chromatography-214 nm; for Purity Change% (7d-0d): Day 7 vs Day 0; for Purity Change% (26d-0d): Day 26 vs Day 0
Description: The lyophilized powder (1 mg/mL) of calcitonin analogues or derivatives prepared in accordance with the method of Example 1 were mixed with sodium dihydrogen phosphate (1.42 mg/mL) and dissolved in ultrapure water in the indicated mass-volume ratios. After adjusting pH to about 7.4 with hydrochloric acid/sodium hydroxide, the solution was filtered into a sterilized vial in a clean bench using a 0.22 µm sterile filter. The vial was then capped and placed into the stability test chamber at 40°C. Detections were made on Days 7 (7d) and 26 (26d), and during the assay, changes in the characteristics and properties of the polypeptides were observed and recorded. The sample was then centrifuged for 3 min at 10000 rpm at 4°C, and the supernatant was transferred to a liquid phase sample vial for detecting the concentration and purity of the polypeptides using liquid phase chromatography described as below, wherein the concentration of the polypeptide = peak area/injection volume/extinction coefficient/60×flow rate, and the purity of the polypeptide = target peak area/total peak area× 100%.
Conditions of the reversed phase chromatography Flow rate: 1.0 ml/min; Autosampler temperature: 15°C; Column temperature: 25°C; Detection wavelengths: 280 nm and 214 nm; Mobile phase A: 100% H2O+0.05% TFA; Mobile phase B: 100% ACN; and Gradient of elution listed in Table 4: Table 4. Listing of the gradient of elution in the liquid phase chromatography
Results were shown below in Tables 5, 6, and 7. A difference of more than 5% in content as compared with the initial value was typically assumed (for example, as prescribed by the Chinese Pharmacopeia (2020 Edition)) to be a significant change. Within a reasonable margin of error, a decrease of less than 1% from the initial value to the detected content is denoted as "no change" below. Table 5. Changes in characteristics or properties in the heat accelerated stability assay

Row | Changes in characteristics or properties, 0d | Changes in characteristics or properties, 7d | Concentration change (7d-0d)/% | Purity Change% (26d-0d) | SMILES | Purity Change% (7d-0d)
1 | Clear | Clear | -2.280% | -4.82% | CC(C)C[C@H](NC(=O)[C@H](CCCNC(=N)N)NC(=O)CNC(=O)[C@H](CC(C)C)NC(=O)[C@@H](NC(=O)[C@H](C)NC(=O)[C@@H](NC(=O)[C@H](CO)NC(=O)[C@H](CC(C)C)NC(=O)[C@H](CCC(N)=O)NC(=O)[C@H](CO)NC(=O)[C@H](C)NC(=O)CC[C@H](NC(=O)CCCCCCCCCCCCCCC(=O)O)C(=O)O)[C@@H](C)O)C(C)C)C(=O)N[C@@H](CO)C(=O)N[C@@H](CC(=O)O)C(=O)N[C@@H](CCC(=O)O)C(=O)N[C@@H](CC(C)C)C(=O)N[C@@H](Cc1c[nH]cn1)C(=O)N[C@@H](CCCNC(=N)N)C(=O)N[C@@H](CC(C)C)C(=O)N[C@@H](CCC(N)=O)C(=O)N[C@@H](CC(=O)O)C(=O)N[C@@H](Cc1ccc(O)cc1)C(=O)N1CCC[C@H]1C(=O)N[C@@H](CCCNC(=N)N)C(=O)N[C@H](C(=O)N[C@@H](CC(=O)O)C(=O)N[C@H](C(=O)NCC(=O)N[C@@H](CO)C(=O)NCC(=O)N[C@@H](CO)C(=O)N1CCC[C@H]1C(N)=O)C(C)C)[C@@H](C)O [M40] ({C16 diacid-γGlu}-ASQLSTAVLGRLSDELHRLQDYPRTDVGSGSP-NH2) | -1.67%
2 | Clear | Clear | -3.134% | -5.98% | CC(C)C[C@H](NC(=O)[C@H](CCCNC(=N)N)NC(=O)CNC(=O)[C@H](CC(C)C)NC(=O)[C@@H](NC(=O)[C@H](C)NC(=O)[C@@H](NC(=O)[C@H](CO)NC(=O)[C@H](CC(C)C)NC(=O)[C@H](CCC(N)=O)NC(=O)[C@H](CO)NC(=O)[C@H](C)NC(=O)[C@H](CCC(=O)O)NC(=O)CCCCCCCCCCCCCCCCCCC(=O)O)[C@@H](C)O)C(C)C)C(=O)N[C@@H](CO)C(=O)N[C@@H](CC(=O)O)C(=O)N[C@@H](CCC(=O)O)C(=O)N[C@@H](CC(C)C)C(=O)N[C@@H](Cc1c[nH]cn1)C(=O)N[C@@H](CCCNC(=N)N)C(=O)N[C@@H](CC(C)C)C(=O)N[C@@H](CCC(N)=O)C(=O)N[C@@H](CC(=O)O)C(=O)N[C@@H](Cc1ccc(O)cc1)C(=O)N1CCC[C@H]1C(=O)N[C@@H](CCCNC(=N)N)C(=O)N[C@H](C(=O)N[C@@H](CC(=O)O)C(=O)N[C@H](C(=O)NCC(=O)N[C@@H](CO)C(=O)NCC(=O)N[C@@H](CO)C(=O)N1CCC[C@H]1C(N)=O)C(C)C)[C@@H](C)O [M41] ({C20 diacid}-EASQLSTAVLGRLSDELHRLQDYPRTDVGSGSP-NH2) | -1.66%
3 | Clear | Clear | -2.670% | -1.77% | CC(C)C[C@H](NC(=O)[C@H](CCCNC(=N)N)NC(=O)CNC(=O)[C@H](CC(C)C)NC(=O)[C@@H](NC(=O)[C@H](C)NC(=O)[C@@H](NC(=O)[C@H](CO)NC(=O)[C@H](CC(C)C)NC(=O)[C@H](CCC(N)=O)NC(=O)[C@H](CO)NC(=O)[C@H](C)NC(=O)[C@H]1CC[C@H](CNC(=O)CCCCCCCCCCCCCCCCCCC(=O)O)CC1)[C@@H](C)O)C(C)C)C(=O)N[C@@H](CO)C(=O)N[C@@H](CC(=O)O)C(=O)N[C@@H](CCC(=O)O)C(=O)N[C@@H](CC(C)C)C(=O)N[C@@H](Cc1c[nH]cn1)C(=O)N[C@@H](CCCNC(=N)N)C(=O)N[C@@H](CC(C)C)C(=O)N[C@@H](CCC(N)=O)C(=O)N[C@@H](CC(=O)O)C(=O)N[C@@H](Cc1ccc(O)cc1)C(=O)N1CCC[C@H]1C(=O)N[C@@H](CCCNC(=N)N)C(=O)N[C@H](C(=O)N[C@@H](CC(=O)O)C(=O)N[C@H](C(=O)NCC(=O)N[C@@H](CO)C(=O)NCC(=O)N[C@@H](CO)C(=O)N1CCC[C@H]1C(N)=O)C(C)C)[C@@H](C)O [M45] ({C20 diacid-Trx}-ASQLSTAVLGRLSDELHRLQDYPRTDVGSGSP-NH2) | No change (a decrease of less than 1% from the initial value to the detected content is denoted as "no change")

Row | SMILES | Changes in characteristics or properties, 0d | Changes in characteristics or properties, 7d | Concentration change (7d-0d)/% | Purity Change% (26d-0d) | Purity Change% (7d-0d)
4 | CC(C)C[C@H](NC(=O)[C@H](CCCNC(=N)N)NC(=O)CNC(=O)[C@H](CC(C)C)NC(=O)[C@@H](NC(=O)[C@H](C)NC(=O)[C@@H](NC(=O)[C@H](CO)NC(=O)[C@H](CC(C)C)NC(=O)[C@H](CCC(N)=O)NC(=O)[C@H](CO)NC(=O)[C@H](C)NC(=O)CC[C@H](NC(=O)CCCCCCCCCCCCCCCCCCCCC(=O)O)C(=O)O)[C@@H](C)O)C(C)C)C(=O)N[C@@H](CO)C(=O)N[C@@H](CC(=O)O)C(=O)N[C@@H](CCC(=O)O)C(=O)N[C@@H](CC(C)C)C(=O)N[C@@H](Cc1c[nH]cn1)C(=O)N[C@@H](CCCNC(=N)N)C(=O)N[C@@H](CC(C)C)C(=O)N[C@@H](CCC(N)=O)C(=O)N[C@@H](CC(=O)O)C(=O)N[C@@H](Cc1ccc(O)cc1)C(=O)N1CCC[C@H]1C(=O)N[C@@H](CCCNC(=N)N)C(=O)N[C@H](C(=O)N[C@@H](CC(=O)O)C(=O)N[C@H](C(=O)NCC(=O)N[C@@H](CO)C(=O)NCC(=O)N[C@@H](CO)C(=O)N1CCC[C@H]1C(N)=O)C(C)C)[C@@H](C)O [M38] ({C22 diacid-γGlu}-ASQLSTAVLGRLSDELHRLQDYPRTDVGSGSP-NH2) | Clear | Clear | No change (a decrease of less than 1% from the initial value to the detected content is denoted as "no change") | No change (a decrease of less than 1% from the initial value to the detected content is denoted as "no change") | No change (a decrease of less than 1% from the initial value to the detected content is denoted as "no change")
5 | CC(C)C[C@H](NC(=O)[C@H](CCCNC(=N)N)NC(=O)CNC(=O)[C@H](CC(C)C)NC(=O)[C@@H](NC(=O)[C@H](C)NC(=O)[C@@H](NC(=O)[C@H](CO)NC(=O)[C@H](CC(C)C)NC(=O)[C@H](CCC(N)=O)NC(=O)[C@H](CO)NC(=O)[C@H](C)NC(=O)[C@H]1CC[C@H](CNC(=O)CCCCCCCCCCCCCCCCC(=O)O)CC1)[C@@H](C)O)C(C)C)C(=O)N[C@@H](CO)C(=O)N[C@@H](CC(=O)O)C(=O)N[C@@H](CCC(=O)O)C(=O)N[C@@H](CC(C)C)C(=O)N[C@@H](Cc1c[nH]cn1)C(=O)N[C@@H](CCCNC(=N)N)C(=O)N[C@@H](CC(C)C)C(=O)N[C@@H](CCC(N)=O)C(=O)N[C@@H](CC(=O)O)C(=O)N[C@@H](Cc1ccc(O)cc1)C(=O)N1CCC[C@H]1C(=O)N[C@@H](CCCNC(=N)N)C(=O)N[C@H](C(=O)N[C@@H](CC(=O)O)C(=O)N[C@H](C(=O)NCC(=O)N[C@@H](CO)C(=O)NCC(=O)N[C@@H](CO)C(=O)N1CCC[C@H]1C(N)=O)C(C)C)[C@@H](C)O [M46] ({C18 diacid-Trx}-ASQLSTAVLGRLSDELHRLQDYPRTDVGSGSP-NH2) | Clear | Clear | No change (a decrease of less than 1% from the initial value to the detected content is denoted as "no change") | -5.67% | No change (a decrease of less than 1% from the initial value to the detected content is denoted as "no change")
6 | CC(C)C[C@H](NC(=O)[C@H](CCCNC(=N)N)NC(=O)CNC(=O)[C@H](CC(C)C)NC(=O)[C@@H](NC(=O)[C@H](C)NC(=O)[C@@H](NC(=O)[C@H](CO)NC(=O)[C@H](CC(C)C)NC(=O)[C@H](CCC(N)=O)NC(=O)[C@H](CO)NC(=O)[C@H](C)NC(=O)C1CCN(C(=O)CCCCCCCCCCCCCCCCCCC(=O)O)CC1)[C@@H](C)O)C(C)C)C(=O)N[C@@H](CO)C(=O)N[C@@H](CC(=O)O)C(=O)N[C@@H](CCC(=O)O)C(=O)N[C@@H](CC(C)C)C(=O)N[C@@H](Cc1c[nH]cn1)C(=O)N[C@@H](CCCNC(=N)N)C(=O)N[C@@H](CC(C)C)C(=O)N[C@@H](CCC(N)=O)C(=O)N[C@@H](CC(=O)O)C(=O)N[C@@H](Cc1ccc(O)cc1)C(=O)N1CCC[C@H]1C(=O)N[C@@H](CCCNC(=N)N)C(=O)N[C@H](C(=O)N[C@@H](CC(=O)O)C(=O)N[C@H](C(=O)NCC(=O)N[C@@H](CO)C(=O)NCC(=O)N[C@@H](CO)C(=O)N1CCC[C@H]1C(N)=O)C(C)C)[C@@H](C)O [M47] ({C20 diacid-Inp}-ASQLSTAVLGRLSDELHRLQDYPRTDVGSGSP-NH2) | Clear | Clear | -3.488% | No change (a decrease of less than 1% from the initial value to the detected content is denoted as "no change") | No change (a decrease of less than 1% from the initial value to the detected content is denoted as "no change")
